Among the data in ChEMBL document CHEMBL3045297, “Synthesis and antifungal activity of 2-azetidinonyl-5-(2-benzoylphenoxy)methyl-1,3,4-oxadiazoles against seed-borne pathogens of Eleusine coracana (L.) Gaertn” (2009) are Vigour_index and Activity values, retold here.

Common to all, as to type: functional
The subject of assay [1] is Eleusine coracana. Description: Phytostimulatory activity in Eleusine coracana (finger mellet) seedlings assessed as vigour index at 1 g/L (reference value: 567 +/- 0.5 no unit).
The subject of assay [2] is Eleusine coracana. Description: Phytostimulatory activity in Eleusine coracana (finger mellet) seedlings assessed as vigour index at 40 g/L (reference value: 567 +/- 0.5 no unit).
The test system of assay [3] is Bipolaris setariae. Description: Antifungal activity against Bipolaris setariae infected finger millet seed assessed as fungal occurrence at 40 g/L after 1 week by stereoscopic analysis (reference value: 18 +/- 0.40%).
In assay [4] the test system is Eleusine coracana. Briefly: Phytostimulatory activity in Eleusine coracana (finger mellet) seedlings assessed as vigour index at 10 g/L (reference value: 567 +/- 0.5 no unit).
For assay [5], the system named is Pyricularia grisea. Description: Antifungal activity against Magnaporthe grisea infected finger millet seed assessed as fungal occurrence at 10 g/L after 1 week by stereoscopic analysis (reference value: 12.5 +/- 0.35%).
Assay [6] concerns Eleusine coracana. Briefly: Induction of seed germination in Eleusine coracana (finger mellet) at 40 g/L (reference value: 81 +/- 0.40%).
Assay [7] deals with Eleusine coracana. Description: Induction of seed germination in Eleusine coracana (finger mellet) at 10 g/L (reference value: 81 +/- 0.40%).
In assay [8] the test system is Bipolaris setariae. Briefly: Antifungal activity against Bipolaris setariae infected finger millet seed assessed as fungal occurrence at 1 g/L after 1 week by stereoscopic analysis (reference value: 18 +/- 0.40%).
For assay [9], the system named is Pyricularia grisea. Description: Antifungal activity against Magnaporthe grisea infected finger millet seed assessed as fungal occurrence at 20 g/L after 1 week by stereoscopic analysis (reference value: 12.5 +/- 0.35%).
In assay [10] the test system is Eleusine coracana. Description: Induction of seed germination in Eleusine coracana (finger mellet) at 20 g/L (reference value: 81 +/- 0.40%).
For assay [11], the system named is Bipolaris setariae. Description: Antifungal activity against Bipolaris setariae infected finger millet seed assessed as fungal occurrence at 10 g/L after 1 week by stereoscopic analysis (reference value: 18 +/- 0.40%).
In assay [12] the test system is Eleusine coracana. Description: Induction of seed germination in Eleusine coracana (finger mellet) at 1 g/L (reference value: 81 +/- 0.40%).
Assay [13] deals with Eleusine coracana. Description: Phytostimulatory activity in Eleusine coracana (finger mellet) seedlings assessed as vigour index at 20 g/L (reference value: 567 +/- 0.5 no unit).
Assay [14] concerns Pyricularia grisea. Description: Antifungal activity against Magnaporthe grisea infected finger millet seed assessed as fungal occurrence at 1 g/L after 1 week by stereoscopic analysis (reference value: 12.5 +/- 0.35%).
Assay [15] concerns Bipolaris setariae. Description: Antifungal activity against Bipolaris setariae infected finger millet seed assessed as fungal occurrence at 20 g/L after 1 week by stereoscopic analysis (reference value: 18 +/- 0.40%).
Assay [16] deals with Pyricularia grisea. Briefly: Antifungal activity against Magnaporthe grisea infected finger millet seed assessed as fungal occurrence at 40 g/L after 1 week by stereoscopic analysis (reference value: 12.5 +/- 0.35%).

In the case of `O=C(c1ccccc1)c1cc(Cl)ccc1OCc1nnc(N2C(=O)C(Cl)C2c2cccc(Br)c2)o1` (stereo unspecified), the Vigour_index with Eleusine coracana [1] was found to be 544; in the assay with Eleusine coracana [2], 641; in the assay on Eleusine coracana [4] it was 585; in the assay on Eleusine coracana [13], 620. Moreover, the Activity with Bipolaris setariae [3] amounted to 6%; with Pyricularia grisea [5], 5%; in the assay with Eleusine coracana [6], 86%; in the assay on Eleusine coracana [7], 83%; in the assay with Bipolaris setariae [8] it was 11%; with Pyricularia grisea [9] it was 4%. For the same compound, the Activity was determined as 83% in the assay with Eleusine coracana [10]; 10% in the assay with Bipolaris setariae [11]; 81% with Eleusine coracana [12]; 6% with Pyricularia grisea [14]; 7% in the assay with Bipolaris setariae [15]; 3% in the assay with Pyricularia grisea [16].

`Cc1ccc(C(=O)c2cc(C)ccc2OCc2nnc(N3C(=O)C(Cl)C3c3cccc(Br)c3)o2)cc1` (stereo unspecified): the Vigour_index in the assay on Eleusine coracana [1] was 594; in the assay with Eleusine coracana [2], 659; in the assay with Eleusine coracana [4], 633; in the assay with Eleusine coracana [13], 680. For the same compound, the Activity in the assay on Bipolaris setariae [3] turned out to be 1.5%; in the assay with Pyricularia grisea [5] it was 4%; in the assay with Eleusine coracana [6], 83%; with Eleusine coracana [7] it was 82%; in the assay on Bipolaris setariae [8] it was 14%; in the assay on Pyricularia grisea [9], 1.5%. Further, the Activity in the assay on Eleusine coracana [10] is reported as 86%; in the assay with Bipolaris setariae [11], 6%; in the assay with Eleusine coracana [12], 80%; in the assay with Pyricularia grisea [14] it was 4%; with Bipolaris setariae [15], 2.5%; in the assay on Pyricularia grisea [16], 1%.

As to `Cc1ccc(OCc2nnc(N3C(=O)C(Cl)C3c3cccc(Br)c3)o2)c(C(=O)c2ccc(Cl)cc2)c1` (stereo unspecified), the Vigour_index in the assay with Eleusine coracana [1] was found to be 588; in the assay on Eleusine coracana [2] it was 693; in the assay with Eleusine coracana [4], 611; in the assay on Eleusine coracana [13], 645. The Activity with Bipolaris setariae [3] is 4.5%; in the assay with Pyricularia grisea [5], 3%; in the assay on Eleusine coracana [6] it was 87%; in the assay with Eleusine coracana [7] it was 85%; with Bipolaris setariae [8] it was 11%; in the assay on Pyricularia grisea [9] it was 3%. The Activity in the assay with Eleusine coracana [10] came out at 85%; in the assay on Bipolaris setariae [11] it was 9%; in the assay with Eleusine coracana [12], 81%; in the assay with Pyricularia grisea [14] it was 4%; with Bipolaris setariae [15], 5%; with Pyricularia grisea [16], 2%.

With `Cc1ccc(OCc2nnc(N3C(=O)C(Cl)C3c3cccc(Br)c3)o2)c(C(=O)c2cccc(Cl)c2)c1` (stereo unspecified), the Vigour_index with Eleusine coracana [1] worked out at 581; in the assay with Eleusine coracana [2] it was 630; in the assay on Eleusine coracana [4], 590; in the assay with Eleusine coracana [13], 639. Further, the Activity was 6% in the assay with Bipolaris setariae [3]; 3.5% in the assay with Pyricularia grisea [5]; 80% with Eleusine coracana [6]; 80% in the assay with Eleusine coracana [7]; 3.5% in the assay with Bipolaris setariae [8]; 4.5% in the assay on Pyricularia grisea [9]. Further, the Activity in the assay with Eleusine coracana [10] turned out to be 82%; in the assay with Bipolaris setariae [11], 4.5%; in the assay with Eleusine coracana [12], 80%; with Pyricularia grisea [14], 5%; in the assay on Bipolaris setariae [15], 2.5%; in the assay with Pyricularia grisea [16], 4.5%.

As to `O=C(c1ccccc1)c1ccc(Br)cc1OCc1nnc(N2C(=O)C(Cl)C2c2cccc(Br)c2)o1` (stereo unspecified), the Vigour_index with Eleusine coracana [1] stood at 572; in the assay with Eleusine coracana [2], 663; in the assay on Eleusine coracana [4] it was 615; with Eleusine coracana [13], 655. Moreover, the Activity in the assay on Bipolaris setariae [3] is on record as 2.5%; with Pyricularia grisea [5] it was 3.5%; in the assay on Eleusine coracana [6], 83%; with Eleusine coracana [7], 86%; with Bipolaris setariae [8], 13.5%; in the assay with Pyricularia grisea [9] it was 3.5%. Also, the Activity was determined as 86% in the assay with Eleusine coracana [10]; 4.5% in the assay on Bipolaris setariae [11]; 81% in the assay with Eleusine coracana [12]; 4% in the assay on Pyricularia grisea [14]; 3.5% in the assay with Bipolaris setariae [15]; 2.5% in the assay with Pyricularia grisea [16].

In the case of `COc1ccc(C(=O)c2cc(C)ccc2OCc2nnc(N3C(=O)C(Cl)C3c3cccc(Br)c3)o2)cc1` (stereo unspecified), the Vigour_index in the assay with Eleusine coracana [1] amounted to 626; with Eleusine coracana [2] it was 688; with Eleusine coracana [4] it was 658; in the assay with Eleusine coracana [13], 706. Besides, the Activity with Bipolaris setariae [3] was found to be 2%; in the assay on Pyricularia grisea [5] it was 2.5%; with Eleusine coracana [6], 84%; with Eleusine coracana [7] it was 88%; with Bipolaris setariae [8] it was 3.5%; in the assay with Pyricularia grisea [9], 1%. The Activity in the assay on Eleusine coracana [10] was 90%; with Bipolaris setariae [11], 2.5%; in the assay on Eleusine coracana [12] it was 85%; in the assay on Pyricularia grisea [14], 3.5%; in the assay with Bipolaris setariae [15], 2%; with Pyricularia grisea [16], 1%.

Regarding `O=C(c1cccc(Cl)c1)c1cc(Cl)ccc1OCc1nnc(N2C(=O)C(Cl)C2c2cccc(Br)c2)o1` (stereo unspecified), the Vigour_index with Eleusine coracana [1] is 622; in the assay on Eleusine coracana [2] it was 700; in the assay with Eleusine coracana [4], 668; in the assay on Eleusine coracana [13] it was 711. The Activity in the assay on Bipolaris setariae [3] was determined as 0.5%; in the assay with Pyricularia grisea [5] it was 1%; with Eleusine coracana [6] it was 90%; in the assay on Eleusine coracana [7], 86%; in the assay with Bipolaris setariae [8], 2.5%; in the assay on Pyricularia grisea [9], 0.5%. Besides, the Activity in the assay on Eleusine coracana [10] is on record as 89%; in the assay on Bipolaris setariae [11], 2%; with Eleusine coracana [12], 85%; in the assay with Pyricularia grisea [14], 2%; in the assay on Bipolaris setariae [15], 0.5%; with Pyricularia grisea [16], 0.5%.

For `Cc1cc(OCc2nnc(N3C(=O)C(Cl)C3c3cccc(Br)c3)o2)c(C(=O)c2ccccc2)cc1Cl` (stereo unspecified), the Vigour_index was found to be 661 with Eleusine coracana [1], 656 in the assay with Eleusine coracana [2], 677 in the assay with Eleusine coracana [4] and 715 with Eleusine coracana [13]. In addition, the Activity turned out to be 2% with Bipolaris setariae [3]; 2% with Pyricularia grisea [5]; 82% with Eleusine coracana [6]; 86% with Eleusine coracana [7]; 2% with Bipolaris setariae [8]; 1% in the assay on Pyricularia grisea [9]. In addition, the Activity amounted to 89% with Eleusine coracana [10]; 1% in the assay with Bipolaris setariae [11]; 86% with Eleusine coracana [12]; 3% in the assay with Pyricularia grisea [14]; 2% with Bipolaris setariae [15]; 0% in the assay on Pyricularia grisea [16].

Consider `Cc1ccc(OCc2nnc(N3C(=O)C(Cl)C3c3cccc(Br)c3)o2)c(C(=O)c2ccccc2Cl)c1` (stereo unspecified), for which the Vigour_index with Eleusine coracana [1] came out at 645; in the assay on Eleusine coracana [2], 692; in the assay on Eleusine coracana [4], 674; with Eleusine coracana [13], 754. Besides, the Activity with Bipolaris setariae [3] came to 2%; with Pyricularia grisea [5], 3%; in the assay with Eleusine coracana [6] it was 89%; in the assay with Eleusine coracana [7], 84%; in the assay on Bipolaris setariae [8] it was 4%; in the assay with Pyricularia grisea [9], 2%. In addition, the Activity with Eleusine coracana [10] came out at 86%; with Bipolaris setariae [11], 3.5%; in the assay with Eleusine coracana [12], 82%; in the assay on Pyricularia grisea [14] it was 3.5%; with Bipolaris setariae [15] it was 2%; in the assay with Pyricularia grisea [16] it was 1%.

Take `Cc1ccc(OCc2nnc(N3C(=O)C(Cl)C3c3cccc(Br)c3)o2)c(C(=O)c2ccccc2)c1` (stereo unspecified): the Vigour_index in the assay with Eleusine coracana [1] is given as 565; with Eleusine coracana [2], 620; in the assay on Eleusine coracana [4], 569; with Eleusine coracana [13], 589. Further, the Activity in the assay with Bipolaris setariae [3] is recorded as 1%; with Pyricularia grisea [5] it was 3.5%; in the assay on Eleusine coracana [6], 86%; in the assay with Eleusine coracana [7], 81%; with Bipolaris setariae [8], 15%; in the assay with Pyricularia grisea [9], 2.5%. Also, the Activity in the assay with Eleusine coracana [10] was determined as 84%; with Bipolaris setariae [11], 6%; in the assay with Eleusine coracana [12], 80%; with Pyricularia grisea [14], 12%; with Bipolaris setariae [15], 4.5%; with Pyricularia grisea [16], 2%.

As to `COC(=O)Nc1nc2ccccc2[nH]1` [CARBENDAZIM], the Vigour_index is 567 with Eleusine coracana [1], 621 with Eleusine coracana [2], 579 with Eleusine coracana [4] and 612 in the assay on Eleusine coracana [13]. Also, the Activity in the assay on Bipolaris setariae [3] turned out to be 2%; with Pyricularia grisea [5] it was 1.5%; in the assay with Eleusine coracana [6], 87%; with Eleusine coracana [7], 84%; in the assay with Bipolaris setariae [8], 3%; with Pyricularia grisea [9], 1%. Also, the Activity in the assay on Eleusine coracana [10] stood at 85%; with Bipolaris setariae [11], 3%; in the assay with Eleusine coracana [12], 82%; in the assay with Pyricularia grisea [14], 1.5%; in the assay with Bipolaris setariae [15], 2%; in the assay with Pyricularia grisea [16], 1%.
